Measured values published in patent US11596691B2, “Photoswitchable HDAC inhibitors” (The General Hospital Corporation, priority 2013, dated 2023).
“Also recorded” adds a separate entry of the source.

Key:
[1] = target: T1, HDAC3 (Homo sapiens, UniProt O15379); assay: Light-dependent HDAC3 biochemical assay (acetyl-lysine tripeptide based on acH4K12); details: for inhibition of HDAC3 enzymatic activity: in the presence and absence of light
T1 construct: 40 μL of a stock solution of full-length HDAC protein at three times the desired final concentration
T1 sequence (O15379 whole entry): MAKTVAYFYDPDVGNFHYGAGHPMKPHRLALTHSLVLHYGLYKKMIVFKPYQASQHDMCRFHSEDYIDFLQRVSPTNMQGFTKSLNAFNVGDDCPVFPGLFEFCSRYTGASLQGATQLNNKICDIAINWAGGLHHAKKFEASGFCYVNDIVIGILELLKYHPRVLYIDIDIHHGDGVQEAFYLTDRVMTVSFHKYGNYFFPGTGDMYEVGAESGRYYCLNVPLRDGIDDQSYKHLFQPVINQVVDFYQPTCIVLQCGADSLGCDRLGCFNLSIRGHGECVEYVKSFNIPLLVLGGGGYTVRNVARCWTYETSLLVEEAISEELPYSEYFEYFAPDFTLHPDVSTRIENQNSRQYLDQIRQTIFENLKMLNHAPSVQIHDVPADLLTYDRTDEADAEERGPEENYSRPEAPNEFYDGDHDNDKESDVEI
T1 sequence (Q9Y618 395-489 partner limits assumed): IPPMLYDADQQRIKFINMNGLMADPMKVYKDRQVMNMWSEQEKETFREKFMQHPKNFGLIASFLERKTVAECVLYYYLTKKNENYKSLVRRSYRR
Experimental: (§1) Compounds were added to white 96-well plates containing 40 μL of HDAC assay buffer (50 mM HEPES, 100 mM KCl, 0.05% BSA, 0.001% Tween-20 at pH 7.4) by pin transfer. To the assay plate was added 40 μL of a stock solution of full-length HDAC protein at three times the desired final concentration. After addition the plate was centrifuged to mix the solution while removing air bubbles. […] After which, reads were taken every 15 minutes to follow the fluorogenic release of 7-amino-4-methylcoumarin from the substrate resulting from deacetylase and trypsin enzymatic activity. In between reads the LED excitation device was reaffixed on top of the plate ensuring maximum cis-isomer population. In parallel to this, a second plate was prepared identically and measured for activity but this plate was not excited by our device but rather was covered to prevent any ambient light from shining on the plate. Replicate pairs of plates were performed.

[2] = test system: HDAC enzyme; assay: HDAC inhibitory activity as a function of light exposure time; format: biochemical; details: continuous 470 nm light, measured in 15 min intervals
Experimental: The activation of the photoswitchable inhibitors depends on the light energy and the exposure time (as predicted by our model). […] Following pre-incubation of the HDAC enzyme and respective small molecule inhibitor, the enzyme substrate was added and the assay plate was continuously exposed to light (470 nm). Inhibitory activities were measured in 15 min intervals.

[3] = test system: HDAC1-3; assay: HDAC IC50 assay with and without 470 nm light exposure; format: biochemical; details: for change of inhibitory activity against HDAC1-3 on light exposure: with vs without exposure (including 1 hr pre-exposure) to 470 nm light
Experimental: as §1
The LED arrays were connected to a micro controller that was programmed to control individual LEDs, LED rows, or LED columns within the array. The controller allowed for modulation of LED intensity by controlling the on/off timing (PWM) or by directly controlling the supplied voltage. The temporal control was <10 ms. The LEDs and microcontroller were powered optionally by a power supply unit connected to a standard 110 V outlet or by a battery-pack, which allowed for use in a cell culture incubator. The LED array was used as lid to illuminate plates from the top and as a stage to illuminate the plates from the bottom, as required by the experimental setup.

[4] = Absorbance spectra; format: physicochemical
Text: Compounds were profiled physically to determine absorbance spectra, solubility and kinetics of photo-isomerization kinetics and thermal relaxation (where applicable). The compounds were then profiled biochemically to determine the HDAC inhibitory profile as a function of light exposure. Finally, selected compounds were profiled in cellular assays for the ability to induce hyperacetylation of histone proteins, which represents a biomarker readout for HDAC inhibition.
Compounds studied include those analogs with a push-pull azobenzene system (BG14, BG18, BG47, BG48 and BG49).
Physical characterization of the prototype inhibitors in PBS confirmed that all compounds strongly absorb light in the blue spectrum with maximum absorbance around 470 nm.

[5] = test system: acetylation of histone H3 Lysine 9 (H3K9Ac) in MCF7 cells; assay: H3K9Ac pharmacodynamic marker in MCF7 cells; format: cell-based; details: for histone acetylation above background: in the absence of light; for acetylation of H3K9 relative to vehicle control: in the presence of light
Text: BG14, BG47 and BG48 were profiled in cell culture to assess cellular activity using acetylation of histone H3 Lysine 9 (H3K9Ac) as a pharmacodynamic marker for HDAC inhibition. […] H3K9 acetylation levels directly correlated with light exposure.

[6] = test system: MCF7 cells; assay: L1000 gene expression profiling / GSEA in MCF7 cells; format: cell-based
Experimental: In order to gain more quantitative insights into the specific genes regulated by the presented inhibitors, and to provide further evidence that the BG inhibitors elicit biological responses similar to the closely related, but light-independent HDAC inhibitors a high-throughput gene expression analysis was performed. Expression profiling was performed in quadruplicate using the L1000™ platform (Genometry, Inc.). Specifically MCF7 cells were treated with various compounds and the transcriptional changes were measured as a function of compound concentration, light exposure intensity, and treatment duration relative to the reference HDAC inhibitors CI994 and “Merck60”.
To assess BG14's nature as an HDAC inhibitor beyond its ability to modulate HDAC and histone acetylation levels, Gene Set Enrichment Analysis (GSEA) was performed between BG14 (max concentration, max amount of light) and the known HDAC inhibitor CI-994 (the same concentration) (FIG. 15D). Very remarkably, the Normalized Enrichment Score (NES) of 3.25 indicates a very high degree of similarity between both expression profiles. The identified 177 On-Target Gene List, (landmark genes regulated by light-dependent BG14_trans only), as well as the 68 Off-Target list (landmark genes regulated in absence of light by BG14_cis) were compared to the list of genes regulated by CI-994. […]

[7] = Thermal relaxation (cis-to-trans) half-life measurement; details: aqueous vs chloroform
[8] = target: T2, HDAC1 (Homo sapiens, UniProt Q13547); assay: Half-life experiment (residence time on HDAC1 after light exposure); format: biochemical; details: 520 nM, 1 hour 470 nm light, then dark 4, 8 and 17 hours; estimated
T2 construct: 40 μL of a stock solution of full-length HDAC protein at three times the desired final concentration
T2 sequence (Q13547 whole entry): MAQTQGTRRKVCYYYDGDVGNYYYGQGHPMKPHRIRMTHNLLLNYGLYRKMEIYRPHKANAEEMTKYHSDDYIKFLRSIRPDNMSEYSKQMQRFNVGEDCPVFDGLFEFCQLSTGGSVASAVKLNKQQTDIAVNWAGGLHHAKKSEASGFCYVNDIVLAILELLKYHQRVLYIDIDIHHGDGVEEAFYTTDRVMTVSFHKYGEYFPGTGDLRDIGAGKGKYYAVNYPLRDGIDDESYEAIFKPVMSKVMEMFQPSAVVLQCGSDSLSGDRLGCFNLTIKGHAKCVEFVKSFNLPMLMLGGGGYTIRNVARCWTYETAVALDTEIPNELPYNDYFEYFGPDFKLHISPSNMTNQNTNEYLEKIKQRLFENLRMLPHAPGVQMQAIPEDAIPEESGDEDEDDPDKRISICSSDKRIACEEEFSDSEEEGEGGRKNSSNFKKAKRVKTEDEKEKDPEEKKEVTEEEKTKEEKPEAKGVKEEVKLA
Experimental: To directly compare the residence time versus isoform relaxation time BG47 and BG48 were incubated with HDAC1 in alternating columns of a white 96-well plate. Columns 1 and 2 were exposed to 470 nm light (22.9V/0.2 A; 0.1 A per column) from LEDs using our excitation device 17 hours before the assay for 1 hour, resulting in 16 hours of relaxation time before the assay. Columns 3 and 4 were exposed to light 9 hours before the assay for 1 hour providing an 8 hour relaxation period and columns 5 and 6 were exposed 5 hours before the assay providing a 4 hour relaxation time point while columns 11 and 12 were used as controls with no pre-exposure. After the completion of the pre-exposure and relaxation time points a stock solution of trypsin and substrate was added to the plate. The plate was centrifuged and read using a Tecan Safire II every 2 minutes while keeping the plate inside the instrument, eliminating exposure to ambient light.
Both compounds were incubated at 520 nM with HDAC1, exposed for 1 hour of […] light and stored in the dark for 4, 8 and 17 hours, respectively, followed by addition of enzyme substrate. The activity was monitored in reference to unexposed compound with continuous readout measured over 2 hours, estimating a residence half-live of 12-24 hours.

[9] = test system: acetylation of histone H3 Lysine 9; assay: Acetylation of histone H3 Lysine 9 in live cells (biomarker for HDAC inhibition); format: cell-based; details: immunofluorescent staining, with/without light
Text: The activity of the compounds in live cells was validated using acetylation of histone H3 Lysine 9 as a biomarker for HDAC inhibition.

With `CN(C)c1ccc(N=Nc2ccc(C(=O)Nc3ccccc3N)cc2)cc1` [BG14, N-(2-aminophenyl)-4-((4-(dimethylamino)phenyl)diazenyl)benzamide] the “inhibition of HDAC3 enzymatic activity” value [1] was “potent light-dependent inhibitory activity; also recorded: also inhibits HDAC3”, the “dependence of HDAC3 inhibitory activity on light exposure” value ([1]; varying average light exposure) was “directly proportional to the average light exposure” and the “activity change as a function of light exposure time” value (“activity change as a function” below) [2] was “increased activity with increased exposure time”. For the same molecule, the “change of inhibitory activity against HDAC1-3 on light exposure” value (shortened to “change of inhibitory activity”) [3] was “Significantly increased activity”, the absorbance range [4] was “absorbed in the blue range of the visible spectrum” and the “histone acetylation above background” value [5] was “No significant histone acetylation above background”. The “acetylation of H3K9 relative to vehicle control” value [5] was “strongly induced acetylation of H3K9”, the “increase of H3K9 acetylation compared among the inhibitors” value ([5]; with light) was “strongest increase of H3K9 acetylation” and the “transcript levels of L1000 landmark genes” value ([6]; MCF7, absence of light) was “did not show any significant changes in transcript levels”. For the same molecule, the “expression levels of landmark genes” value ([6]; MCF7, increasing amounts of light) was “significant changes of expression levels of specific landmark genes”.

In the case of `CC(=O)Nc1ccc(C(=O)Nc2ccccc2N)cc1` [CI-994, reference compound], the “inhibition of HDAC3 enzymatic activity” value [1] was “no differential activity” and the “change of inhibitory activity” value [3] was “no differential activity”.

In the case of `Nc1ccccc1NC(=O)c1ccc(N=Nc2ccccc2)cc1` [BG12, N-(2-aminophenyl)-4-(phenyldiazenyl)benzamide], the absorbance range [4] was “maximally absorbs in the UV range”.

With `CN(C)c1ccc(N=Nc2ccc(C(=O)O)cc2)cc1` [DABCYL] the “thermal relaxation faster than previous measurements in chloroform” value [7] was “approximately 120 ×”.

With `CN(C)c1ccc(N=Nc2ccc(C(=O)Nc3cc(-c4cccs4)ccc3N)cc2)cc1` [BG47, N-(2-amino-5-(thiophen-2-yl)phenyl)-4-((4-(dimethylamino)phenyl)diazenyl)benzamide] the “inhibition of HDAC3 enzymatic activity” value [1] was “did not inhibit HDAC3 in the presence and absence of light”, the residence time [8] was 720 to 1440 min and the HDAC isoform selectivity [3] was “HDAC1/2-selective”. For the same molecule, the “change of inhibitory activity” value [3] was “Significantly increased activity”, the absorbance range [4] was “absorbed in the blue range of the visible spectrum” and the “histone acetylation above background” value [5] was “No significant histone acetylation above background”. The “acetylation of H3K9 relative to vehicle control” value [5] was “strongly induced acetylation of H3K9”.

With `CN(C)c1ccc(N=Nc2ccc(C(=O)Nc3ccccc3O)cc2)cc1` [BG18, 4-((4-(dimethylamino)phenyl)diazenyl)-N-(2-hydroxyphenyl)benzamides] the “change of inhibitory activity” value [3] was “Significantly increased activity” and the absorbance range [4] was “absorbed in the blue range of the visible spectrum”.

With `Nc1ccccc1NC(=O)c1ccc(N=Nc2ccc(C(=O)O)cc2)cc1` [BG19, 4-((4-((2-aminophenyl)carbamoyl)phenyl)diazenyl)benzoic Acid] the absorbance range [4] was “maximally absorbs in the UV range”.

For `O=C(CCCCCCC(=O)Nc1ccccc1)NO` [SAHA], the “activity change as a function” value [2] was “Only compound BG14 shows increased activity with increased exposure time”.

With `CN(C)c1ccc(N=Nc2ccc(C(=O)Nc3cc(-c4ccccc4)ccc3N)cc2)cc1` [BG48, N-(4-amino-[1,1′-biphenyl]-3-yl)-4-((4-(dimethylamino)phenyl)diazenyl)benzamide] the “inhibition of HDAC3 enzymatic activity” value [1] was “did not inhibit HDAC3 in the presence and absence of light”, the residence time [8] was 720 to 1440 min and the HDAC isoform selectivity [3] was “HDAC1/2-selective”. The “change of inhibitory activity” value [3] was “Significantly increased activity”, the absorbance range [4] was “absorbed in the blue range of the visible spectrum” and the “histone acetylation above background” value [5] was “No significant histone acetylation above background”. The “acetylation of H3K9 relative to vehicle control” value [5] was “strongly induced acetylation of H3K9”.

In the case of `Nc1ccccc1NC(=O)c1ccc(CNC(=O)OCc2cccnc2)cc1` [MS-275], the “activity change as a function” value [2] was “Only compound BG14 shows increased activity with increased exposure time”.

With `CN(C)c1ccc(N=Nc2ccc(C(=O)Nc3ccccc3O)cc2)cc1` [BG49, 4-((4-(dimethylamino)phenyl)diazenyl)-N-(2-hydroxyphenyl)benzamides] the “hyperacetylation of H3K9 relative to DMSO control” value [9] was “statistically significant induced hyperacetylation of H3K9 relative to DMSO control was observed only following light exposure” and the “inhibition of HDAC3 enzymatic activity” value [1] was “not targeted”.
